Values joined by “and” are separate entries in the source; they are usually repeats but may differ in a detail not shown here. Equal values may be shown once. Read-outs that look alike come from different tables or passages of the source.
Tests used:
behavioral signature = assay: SmartCube phenotypic screening (class/subclass and DRFA similarity analysis); format: in vivo, male C57/B16 mice; conditions: for Subclass signature: COMPOUND A 30-120 mg/kg, COMPOUND B 90 and 120 mg/kg PO; for proximity to donepezil / proximity to thioperamide: DRFA dose by dose, maximum (COMPOUND A: 90 and 120 mg/kg)
Procedure: A study was conducted to evaluate the CNS-like efficacy of novel test compounds using the SmartCube® System.
Animals. Male C57/B16 mice from Taconic Laboratories (Germantown, NY) were used. Upon receipt, mice were group-housed in OPTIMice® ventilated cages with 4 mice per cage. Mice were acclimated to the colony room for at least one week prior to test, and subsequently tested at approximately 8-9 weeks of age. All animals were examined, handled, and weighed prior to initiation of the study to assure adequate health and suitability and to minimize nonspecific stress associated with manipulation. During the course of the study, 12/12 light/dark cycles were maintained. The room temperature was 20-23° C. with a relative humidity maintained between 30-70%. Chow and water were provided ad libitum for the duration of the study.
Test compounds. All compounds were administered orally at a dose volume of 10 mL/kg, 20 minutes prior to testing. Formulations were prepared fresh on day of testing and dosing was completed within one hour of formulation. Compounds were prepared according to the table below. Twelve mice were used in each treatment group:
SmartCube®. The SmartCube® system is designed to and can successfully measure numerous spontaneous behaviors and response to challenges in the same testing environment. The hardware includes force sensors and a number of aversive stimuli to elicit behavior. Three high-resolution video cameras provide constant 3D view of the mouse in the SmartCube® apparatus (SC) throughout the entire testing period. During the 45-minute test session the mice are exposed to a sequence of challenges. The cubes are cleaned between each run.
Digital videos of the subjects were processed through computer segmentation algorithms to fit geometrical models to each mouse frame image. The resulting fitted parameters were then analyzed using behavioral classifier algorithms to extract behavioral states, such as rearing, locomotion, and immobility. The data obtained in this way was used to define a drug signature for PGI's known reference compounds and establish a therapeutic class signature against which a test sample can be compared.
The data mining effort utilizes several analytical methods including Bayesian probabilistic density models and Decision trees. The algorithms consider ˜2,600 measures including frequency and duration of behavioral states such as grooming, rearing, etc., and many other features obtained during the test session.
Two major types of analyses are routinely conducted: Class and subclass.
Each reference drug was tested at multiple doses appropriate for that drug in mice.
Multiple analyses of the data were performed to quantitatively produce independent predictions of drug class, and drug subclass. The behavioral signatures of the test drugs were evaluated using these classifiers to predict potential therapeutic utility.
The results for the class and subclass analyses are presented as standardized bar charts with percentages that sum to 100 for each dose.
Similarity Analysis Using “Clouds Framework”. The outcome from SmartCube® is a large set of features (behavioral parameters) that can be used for various analyses. […] Therefore, we formed statistically independent combinations of the original features (further referred to as de-correlated features). Each de-correlated feature extracted information from the whole cluster of the original features, so the new feature space would have lower dimensionality. Next, we applied a proprietary feature ranking algorithm to score each feature for its discrimination power (ability to separate the two groups, e.g. vehicle from treatment). Ranking is an important part of our analyses because it weighs each feature change by its relevance. We applied a feature ranking algorithm, derived from support vector in the support vector machine learning method, to rank each feature.

hNav1.5 = molecular target: T1, hNav1.5 (Homo sapiens, UniProt Q14524); assay: Nav1.5 human sodium ion channel cell based automated patch clamp assay (QPatch HT); conditions: Antagonist
T1 construct: CYL6004QP2DR
Procedure: Electrophysiological assays were conducted to profile five compounds for activities on the ion channel target using the QPatch HT electrophysiological platform.
CYL6004QP2DR Nav1.5 Human Sodium Ion Channel Cell Based Automated Patch Clamp Assay. Cells were held at −120 mV for 100 ms, stepped to −130 mV for 100 ms, and stepped back to −120 mV for 100 ms to measure the leak current. Na channels exist in a) resting or closed state at −120 mV, b) a transient open state that inactivates to c) inactivated state at −10 mV. Na current inhibition within 1-2 ms of channel opening at −10 mV is open channel inhibition (pulse 1). […] Pulse 1 and 2 are used to investigate drug binding to the open state and inactivated state of the Na channels, respectively. Each concentration of compound was applied for 5 minutes.
Current amplitudes more than 200 pA at the control stage were analyzed. The amplitude of the current was calculated by measuring the difference between the peak inward current on stepping to −10 mV (i.e. peak of the current) and remaining current at the end of the step. The current was assessed in vehicle control conditions and then at the end of each five (5) minute compound application.

[1] = Metabolic stability in rat liver S9; format: in vitro ADME, Sprague Dawley rat; set-up: half-life: dose or concentration left out as unconfirmed; conditions: for half-life: Sprague Dawley (rat), rat, dog and human liver S9 incubations (summary over species), read-out: half-lives; for half-life / half-life at 1 μM / microsomal CLint at 1 μM: pH 7.2
Procedure: Incubation Buffer (PBK): 50 mM potassium phosphate buffer was prepared from 1 M potassium phosphate buffer, pH 7.2. […] The dilution of […] was prepared by 90% methanol/10% DMSO, then 10 μM working solutions were prepared by diluting the 0.1 mM intermediates with 50 mM PBK. […] Prior to use, the stock solutions were brought to room temperature and thoroughly mixed. […] Cofactors Solutions: the mixture of cofactors solution was made at 10 mM of NADPH and 10 mM of UDPGA in PBK buffer.
The incubation was carried out in 96-well plates. The liver S9 working solutions were added to 96-well plates (80 μL/well) in duplicate. […] Reaction was initiated by adding cofactor mixture 10 μL/well. The plates were incubated at 37° C. in a water bath with shaking. […] The final organic solvent content in the incubation was ≤1%.
At specified time points, i.e., 5, 10, 20, 30 and 60 minutes, NCF60 (without adding NADPH (Nicotinamide-adenine dinucleotide phosphate, reduced form) and UDPGA (Uridine 5′-diphosphoglucuronic acid trisodium salt) replaced with PBK buffer reaction was stopped by adding three volumes of stop solution. The time zero (To) samples were prepared by adding three volumes of stop solution to liver S9 samples, followed by addition of test article or control, and cofactor mixture solution 10 μL/well.
Subsequently, 100 μL of supernatant.
Positive controls: 7-ethoxycoumarin and 7-hydroxycoumarin.

[2] = Pulse 1 (open state), read-out: Estimated IC50 (Pulse 1)
[3] = Pulse 2 (inactivated state), read-out: Estimated IC50 (Pulse 2)
[4] = Sprague Dawley, rat liver S9, 1 μM
[5] = Sprague Dawley, rat liver S9, 1 μM, read-out: CLint(LS9)
[6] = rat liver S9, 1 μM, NCF60 (no cofactors, 60 min)
[7] = 1 μM in SD Rat liver S9 fractions
[8] = Sprague-Dawley, 1 μM in SD Rat liver S9 fractions
[9] = Sprague-Dawley, 1 μM in SD Rat liver S9 fractions, read-out: CLint(mic.)

T1 sequence (Q14524 whole entry): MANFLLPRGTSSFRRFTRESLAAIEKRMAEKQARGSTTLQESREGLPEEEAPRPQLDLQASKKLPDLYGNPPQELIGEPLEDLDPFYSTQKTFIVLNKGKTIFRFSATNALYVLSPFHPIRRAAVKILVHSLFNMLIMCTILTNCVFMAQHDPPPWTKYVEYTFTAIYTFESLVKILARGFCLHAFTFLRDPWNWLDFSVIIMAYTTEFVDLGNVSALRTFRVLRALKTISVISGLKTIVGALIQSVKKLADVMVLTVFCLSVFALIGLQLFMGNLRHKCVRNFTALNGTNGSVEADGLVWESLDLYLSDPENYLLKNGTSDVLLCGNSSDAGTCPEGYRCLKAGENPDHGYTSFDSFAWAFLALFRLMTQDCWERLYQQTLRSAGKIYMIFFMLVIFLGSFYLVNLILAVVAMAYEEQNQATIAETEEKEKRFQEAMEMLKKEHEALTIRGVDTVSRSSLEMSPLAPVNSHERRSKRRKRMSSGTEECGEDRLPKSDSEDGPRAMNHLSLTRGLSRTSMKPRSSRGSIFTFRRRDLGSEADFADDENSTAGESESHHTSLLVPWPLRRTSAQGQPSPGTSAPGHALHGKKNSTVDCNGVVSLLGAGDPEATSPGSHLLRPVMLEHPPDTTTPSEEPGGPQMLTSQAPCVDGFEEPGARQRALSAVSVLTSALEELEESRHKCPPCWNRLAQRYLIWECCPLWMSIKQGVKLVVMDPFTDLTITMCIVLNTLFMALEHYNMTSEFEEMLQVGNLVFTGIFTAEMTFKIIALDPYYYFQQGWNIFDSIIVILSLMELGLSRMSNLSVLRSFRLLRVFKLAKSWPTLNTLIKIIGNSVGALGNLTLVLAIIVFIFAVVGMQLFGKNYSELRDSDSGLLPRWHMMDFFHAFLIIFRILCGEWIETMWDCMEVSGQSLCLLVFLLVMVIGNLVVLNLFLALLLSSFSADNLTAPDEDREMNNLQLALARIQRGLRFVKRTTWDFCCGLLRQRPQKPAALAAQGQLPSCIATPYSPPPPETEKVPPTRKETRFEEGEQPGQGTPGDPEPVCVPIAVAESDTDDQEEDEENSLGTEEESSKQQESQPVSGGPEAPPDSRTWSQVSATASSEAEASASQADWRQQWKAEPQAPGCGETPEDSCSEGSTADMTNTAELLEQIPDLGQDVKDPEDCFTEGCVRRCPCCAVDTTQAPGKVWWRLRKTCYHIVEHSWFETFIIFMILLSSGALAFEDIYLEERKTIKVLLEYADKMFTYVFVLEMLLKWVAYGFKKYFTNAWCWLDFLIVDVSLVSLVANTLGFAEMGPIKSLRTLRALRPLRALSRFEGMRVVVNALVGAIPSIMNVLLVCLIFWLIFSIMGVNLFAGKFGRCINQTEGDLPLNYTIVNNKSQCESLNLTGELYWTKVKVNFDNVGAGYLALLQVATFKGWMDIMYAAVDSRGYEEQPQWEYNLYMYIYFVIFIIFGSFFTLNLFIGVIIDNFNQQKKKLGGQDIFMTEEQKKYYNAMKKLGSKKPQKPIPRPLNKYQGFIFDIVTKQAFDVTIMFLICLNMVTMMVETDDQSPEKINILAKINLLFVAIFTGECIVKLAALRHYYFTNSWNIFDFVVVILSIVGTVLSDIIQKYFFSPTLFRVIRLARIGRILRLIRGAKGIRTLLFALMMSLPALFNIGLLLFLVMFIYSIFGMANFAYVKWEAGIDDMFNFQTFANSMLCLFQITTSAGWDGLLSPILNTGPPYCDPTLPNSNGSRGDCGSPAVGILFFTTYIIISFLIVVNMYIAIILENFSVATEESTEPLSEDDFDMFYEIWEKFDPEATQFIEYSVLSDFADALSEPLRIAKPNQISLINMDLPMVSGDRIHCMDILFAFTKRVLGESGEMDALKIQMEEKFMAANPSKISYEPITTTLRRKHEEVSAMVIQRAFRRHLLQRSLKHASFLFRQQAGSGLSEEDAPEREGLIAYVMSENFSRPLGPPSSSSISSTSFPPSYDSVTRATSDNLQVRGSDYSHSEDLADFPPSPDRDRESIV

SMILES	Subclass signature (behavioral signature)	IC50 (hNav1.5; [2])	IC50 (hNav1.5; [3])	half-life [1]	half-life at 1 μM [1, 4]	microsomal CLint at 1 μM [1, 5]	% Remaining ([1]; rat liver S9, 1 μM, 0 min)	Analyte Peak area/IS Peak area Mean × 100 (n = 2) ([1]; rat liver S9, 1 μM, 0 min)	% Remaining ([1]; rat liver S9, 1 μM, 5 min)	Analyte Peak area/IS Peak area Mean × 100 (n = 2) ([1]; rat liver S9, 1 μM, 5 min)	% Remaining ([1]; rat liver S9, 1 μM, 10 min)	Analyte Peak area/IS Peak area Mean × 100 (n = 2) ([1]; rat liver S9, 1 μM, 10 min)	% Remaining ([1]; rat liver S9, 1 μM, 20 min)	Analyte Peak area/IS Peak area Mean × 100 (n = 2) ([1]; rat liver S9, 1 μM, 20 min)	% Remaining ([1]; rat liver S9, 1 μM, 30 min)	Analyte Peak area/IS Peak area Mean × 100 (n = 2) ([1]; rat liver S9, 1 μM, 30 min)	% Remaining ([1]; rat liver S9, 1 μM, 60 min)	Analyte Peak area/IS Peak area Mean × 100 (n = 2) ([1]; rat liver S9, 1 μM, 60 min)	% Remaining [1, 6]	Analyte Peak area/IS Peak area Mean × 100 (n = 2) [1, 6]	other results
CCOc1ccccc1OC[C@@H]1CN(C(=O)OC(C)OC(=O)[C@@H](N)C(C)C)CCO1 (stereo partly drawn) [COMPOUND A]	predominantly cognitive enhancer-like	> 100 µM	19.6 µM	4 to 12 min	8.61 min	161 µL/min/mg	100%	10.7	6.3%	0.669	5.4%	0.574	3.4%	0.362	1.6%	0.171	0.25%	0.026	2.2%	0.237	behavioral activity (class/subclass analysis) (behavioral signature; 30-120 mg/kg PO): high behavioral activity; proximity to donepezil (behavioral signature): > 65%; proximity to thioperamide (behavioral signature): > 75%
CCOc1ccccc1OC[C@@H]1CN(C(=O)OC(OC(=O)[C@@H](N)C(C)C)C(C)C)CCO1 (stereo partly drawn) [COMPOUND B]	predominantly cognitive enhancer-like	> 100 µM	7.6 µM	4 to 12 min	4.09 min	339 µL/min/mg	100%	7.71	6.8%	0.524	4.6%	0.351	2.3%	0.174	0.2%	0.019	0.08% and 0.1%	0.006	0.4%	0.029	behavioral activity (class/subclass analysis) (behavioral signature; 90 and 120 mg/kg PO): high behavioral activity
CCOc1ccccc1OC[C@@H]1CN(C(=O)OC(OC(=O)[C@H](N)C(C)C)C(C)C)CCO1 (stereo partly drawn) [COMPOUND C]		> 100 µM	8.5 µM	4 to 12 min	8.53 min	163 µL/min/mg	100%	6.55	19%	1.24	13%	0.834	5.6%	0.365	3.5%	0.228	0.39% and 0.4%	0.026	3.5%	0.228	behavioral activity (class/subclass analysis) (behavioral signature; 60-150 mg/kg PO): high behavioral activity; proximity to donepezil (behavioral signature): around 100%; proximity to thioperamide (behavioral signature): around 100%; proximity to amphetamine (behavioral signature; DRFA, active doses): > 75%; proximity to atomoxetine (behavioral signature; DRFA, active doses): > 75%; class signature (behavioral signature; highest dose tested (150 mg/kg PO)): predominant antipsychotic-like signature
CCOc1ccccc1OCC1CN(C(=O)OC(C)OC(=O)[C@H](N)C(C)C)CCO1 (stereo partly drawn) [COMPOUND D]		> 100 µM	14.1 µM																		behavioral activity (class/subclass analysis) (behavioral signature; 40 and 80 mg/kg PO): dose dependent increase in activity; % Remaining at 60 min [1, 7]: 0.48%; half-life at 1 μM [1, 8]: 9.4 min; microsomal CLint at 1 μM [1, 9]: 148 µL/min/mg
CCOc1ccccc1OCC1CN(C(=O)OC(OC(=O)[C@@H](N)C(C)C)C(C)C)CCO1 (stereo partly drawn) [COMPOUND E]		92.6 µM	5.7 µM																		behavioral activity (class/subclass analysis) (behavioral signature; 40 and 80 mg/kg PO): moderate activity; % Remaining at 60 min [1, 7]: 0.00%; half-life at 1 μM [1, 8]: 4.8 min; microsomal CLint at 1 μM [1, 9]: 290 µL/min/mg

Source: patent US20240343699A1, “DERIVATIVES OF SUBSTITUTED MORPHOLINES AND USES THEREOF” (Supernus Pharmaceuticals, Inc., priority 2023, published 2024)
